The values that follow come from patent publication US20140348880A1, “Ortho-Aminothiophenol Compounds and Uses Thereof” (Cape Breton University, priority 2013, published 2014).

The test system of test [1] is S. aureus. The experiment in a line: Disc diffusion zone of inhibition (Example 2). The test is classed as cell-based. As to conditions: Staphylococcus aureus. (Agar diffusion results depend on both activity and mobility in agar.)
The test system of test [2] is B. cereus. The experiment in a line: Disc diffusion zone of inhibition (Example 2). The class given is cell-based, Bacillus cereus. As for the experimental part: (§1) The growth medium was prepared by addition of Müller-Hinton agar (38 g) to 1 L distilled water under vigorous stirring and boiled for 10 min until complete dissolution. After cooling to 25° C., the pH value of the medium was 7.3±0.1. The medium was sterilized in an autoclave at 121° C. for 15 min at 20 psi, cooled to 45-50° C. and dispended into sterile Petri dishes on a leveled, horizontal surface to give uniform depth. Stock solutions of the microorganisms were incubated at 37° C. for 24 h and the turbidity of these microbial colony were adjusted visually with sterile saline (0.85% w/v NaCl) to 0.5 McFarland standards (bioMerieux, SA (France) they are made from barium sulfate (BaSO4). Within 15 min after adjusting the turbidity of the suspensions, the Petri dishes were inoculated using sterile cotton buds. The prepared antibiotic assay discs were placed on the surface of the seeded Müller-Hinton agar using flame sterilized forceps.
(§2) Stock solutions of compounds of Formula I, Ia, Ib and Formula II, IIa, pharmaceutically acceptable salts thereof, and metal complexes thereof were made in DMSO and were micropipetted onto the discs for 25 to 200 μg/disc. The discs were dried at ambient temperature for 30-50 min before placement onto the seeded Petri dishes which were then incubated at 37° C. for 24 h. Averaged inhibition zone diameters measurements (mm) have an accuracy of ±0.5 mm; adjacent overlapping ZOI were determined using radii measurements. Antibiotic disc like (sulfamethoxazole 23.75 μg trimethoprim 1.25 μg)/disc, Gentamicin 10 μg/disc and DMSO were used as positive and negative standards (control).
(§3) Antimicrobial test was carried out to evaluate the efficacy of compounds of Formula I, Ia, Ib and Formula II, IIa, pharmaceutically acceptable salts thereof, and metal complexes thereof, as well as control tests with control compounds, against six major pathogenic bacteria namely Bacillus cereus, Pseudomonas aeruginosa, Klebsiella pneumonia, Proteus vulgaris, Staphylococcus aureus and Escherichia coli.

Test [3] deals with S. aureus. Nature of the test: Disc diffusion zone of inhibition (Example 2). The test is classed as cell-based, Staphylococcus aureus. The settings on record: S. aureus. As for the experimental part: as §1, §2, §3
For test [4], the system named is B. cereus. The experiment in a line: Disc diffusion zone of inhibition (Example 2). The test is classed as cell-based. As to conditions: Bacillus cereus.
The test system of a further test is K. pnemonia. The experiment in a line: Disc diffusion zone of inhibition (Example 2). The test is classed as cell-based, Klebsiella pneumonia. The protocol: as §1, §2, §3
The next test deals with E. coli. Nature of the test: Disc diffusion zone of inhibition (Example 2). The test is classed as cell-based, Escherichia coli. As for the experimental part:
as §1, §2, §3

Another test relates to P. aeruginosa. Nature of the test: Disc diffusion zone of inhibition (Example 2). The class given is cell-based, Pseudomonas aeruginosa. The protocol:
as §1, §2, §3

A short description of test [5]: DPPH antioxidant activity test. As to conditions: 50 μg compound in 3 mL methanol; DPPH 150 μL 1 mM; 30 min, 25 °C; absorbance 517 nm. The protocol:
In addition to antibacterial properties, antioxidant activity was assessed in the compounds of Formula I and II and metal complexes thereof as antioxidant compounds play an important role in remediating the toxic effects of reactive oxygen species and other free radicals. The main characteristic of an antioxidant compound is its ability to trap free radicals. Highly reactive free radicals and oxygen species are present in biological systems from a wide variety of sources. Free radical damage is known to occur during bacterial and other microbial infections. Free radicals are produced by cells of the immune system during an active infection, and generally as a result of the inflammatory processes.
DPPH (2,2-diphenyl-1-picryl-hydrazyl, 150 μL, 1 mM solution in methanol) was added to 3 mL methanol in a cuvette (0.5 in diameter) and UV-vis absorption recorded at 517 nm for baseline reading. In a cuvette, DPPH (150 μL, 1 mM solution in methanol) was added to a solution containing compound in 3 mL methanol. The reaction was allowed to stir at 25±1° C. for 30 min under exclusion of light. Absorbance was recorded at 517 nm against reference cuvette filled with methanol.

A further test has as its system P. vulgaris. The experiment in a line: Disc diffusion zone of inhibition (Example 2). The class given is cell-based, Proteus vulgaris. The protocol:
as §1, §2, §3

The test system of test [6] is Proteus vulgaris (#13315). The experiment in a line: In vitro disc diffusion assay, ZOI (Example 3). The class given is cell-based. As to conditions: P. vulgaris; control; 10 μg/disc. The protocol:
(§4) Sterile assay discs (6 mm diameter) were obtained from VWR Whatman and antibiotic assay discs (6 mm diameter) containing getamicin (10 μg/disc) and the combination drug sulfamethoxazole 23.75 μg/disc and trimethoprim 1.25 μg/disc were obtained from Becton, Dickinson and Company (USA). Dimethyl sulfoxide (DMSO) for microbial experiments was BioReagent™ grade and was purchased from Sigma-Aldrich. The nutrient broth and Müller-Hinton agar was purchased from Becton, Dickinson and Company (USA). Bacillus cereus, Pseudomonas aeruginosa (#27853), Klebsiella pneumonia (#13883), Proteus vulgaris (#13315), Staphylococcus aureus (#25923) and Escherichia coli (#25922) strains were obtained from the American Type Culture Collection (ATCC). All materials in contact with antimicrobial matter was treated for 40 min at 121° C. and 20 psi in a biohazard autoclave bag prior to waste disposing or washing. McFarland turbity standards containing barium sulfate were obtained from bioMérieux.
as §1, with “the” for “these”, “colonies” for “colony”, “standards.” for “standards (bioMerieux, SA (France) they are made from barium sulfate (BaSO4).”
(§5) Stock solutions of compounds and the Cu complexed compounds were made in DMSO and were micropipetted onto the discs for 25 to 200 μg compound/disc. The discs were dried at ambient temperature for 30-50 min before placement onto the seeded Petri dishes which were then incubated at 37° C. for 24 h. Averaged inhibition zone measurements (mm) have an accuracy of ±0.5 mm; adjacent overlapping ZOI were determined using radii measurements.

Test [7] has as its system Klebsiella pneumonia (#13883). Nature of the test: In vitro disc diffusion assay, ZOI (Example 3). The class given is cell-based. The settings on record: K. pnemonia; control; 10 μg/disc. The protocol:
as §4
as §1, with “the” for “these”, “colonies” for “colony”, “standards.” for “standards (bioMerieux, SA (France) they are made from barium sulfate (BaSO4).”
as §5

In test [8] the test system is Staphylococcus aureus (#25923). Nature of the test: In vitro disc diffusion assay, ZOI (Example 3). The test is classed as cell-based. As to conditions: S. aureus; control; 10 μg/disc. The protocol: as §4
as §1, with “the” for “these”, “colonies” for “colony”, “standards.” for “standards (bioMerieux, SA (France) they are made from barium sulfate (BaSO4).”
as §5

Test [9] concerns Escherichia coli (#25922). The experiment in a line: In vitro disc diffusion assay, ZOI (Example 3). As to conditions: E. coli; control; 10 μg/disc. The test is classed as cell-based. As for the experimental part: as §4
as §1, with “the” for “these”, “colonies” for “colony”, “standards.” for “standards (bioMerieux, SA (France) they are made from barium sulfate (BaSO4).”
as §5

A further test has as its system Bacillus cereus. The experiment in a line: In vitro disc diffusion assay, ZOI (Example 3). The test is classed as cell-based. The settings on record: B. cereus; control; 10 μg/disc. As for the experimental part:
as §4
as §1, with “the” for “these”, “colonies” for “colony”, “standards.” for “standards (bioMerieux, SA (France) they are made from barium sulfate (BaSO4).”
as §5

Test [10] has as its system Pseudomonas aeruginosa (#27853). Nature of the test: In vitro disc diffusion assay, ZOI (Example 3). The test is classed as cell-based. The settings on record: P. aeruginosa; control; 10 μg/disc. The protocol:
as §4
as §1, with “the” for “these”, “colonies” for “colony”, “standards.” for “standards (bioMerieux, SA (France) they are made from barium sulfate (BaSO4).”
as §5

As for `Nc1ccccc1SCc1ccccc1` [S-benzyl-ortho-aminothiophenol, S-benzyl ortho-aminothiophenol], the zone of inhibition – broadly, the extent of the growth-free halo in a diffusion test – at 333 µg/disc in the test with S. aureus [1] (333 μg/disc) stood at 13 mm; in the test on B. cereus [4] (333 μg/disc), 15 mm. Moreover, the zone of inhibition at 666 µg/disc is 15 mm in the test on S. aureus [1] (666 μg/disc) and 16 mm with B. cereus [4] (666 μg/disc). The zone of inhibition at 166 µg/disc in the test on B. cereus [2] (Bacillus cereus, 166 μg/disc) was determined as 12 mm; in the test on S. aureus [3] (Staphylococcus aureus, 166 μg/disc) it was 11 mm.
In the case of `O=Cc1ccccn1` [2-pyridine carboxaldehyde], the zone of inhibition at 50 µg/disc with B. cereus [2] (Bacillus cereus, 50 μg/disc) was 20 mm; in the test on K. pnemonia (Klebsiella pneumoniae, 50 μg/disc) it was 23 mm; in the test with E. coli (Escherichia coli, 50 μg/disc), 17 mm; in the test on S. aureus [3] (Staphylococcus aureus, 50 μg/disc), 15 mm; in the test with P. aeruginosa (Pseudomonas aeruginosa, 50 μg/disc), 24 mm; in the test on P. vulgaris (Proteus vulgaris, 50 μg/disc), 22 mm. In addition, in test [5], the “% Antiox-Act” value is 67.0%.
On to Gentamicin, for which the Zone of Inhibition with B. cereus [2] (10 μg/disc) was found to be 25 mm; in the test on K. pnemonia (10 μg/disc) it was 25 mm; in the test with E. coli (10 μg/disc), 24 mm; in the test with S. aureus [3] (10 μg/disc), 25 mm; in the test with P. aeruginosa (10 μg/disc) it was 20 mm; in the test on P. vulgaris (10 μg/disc) it was 24 mm. For the same molecule, the ZOI in test [6] came out at 9 mm; in [7], 9.5 mm; in test [8], 9.5 mm; in test [9], 9 mm; with Bacillus cereus it was 9.5 mm; in [10], 7 mm.
